# Source: patent publication US8765138B2 (priority 2004, dated 2014)
# Legend:
# [1] = tested on: Flu A H3N2 Wisconsin 67/2005; experiment: microbe, parasite or virus in culture; assay type: cell-based; conditions: Influenza A virus, H3N2, MDCK, read-out: Control EC50
# MDCK cell line = experiment: cells; assay type: cell-based; conditions: for Control IC50: ribavirin control, with Flu A H5N1
structure (smiles),measurement,setting,value
"NC(=O)c1ncn([C@@H]2O[C@H](CO)[C@@H](O)[C@H]2O)n1 [RIBAVARIN, Ribavirin]",EC50,[1],1.9 µg/mL
same,IC50,"MDCK cell line; Canis lupus familiaris, MDCK, read-out: Control IC50",> 320 µg/mL
same,Control IC50,MDCK cell line; Neutral Red,>320 µg/mL
same,Control IC50,MDCK cell line; Visual,>320 µg/mL
